Laboratory results taken from US20250282746A1, “HALOGEN-SUBSTITUTED ISOINDOLINE COMPOUND AND USE THEREOF” (CHENGDU FENDI PHARMACEUTICAL CO., LTD., priority 2022, published 2025).
Where two headings read alike, the source gives them in different places.

How the values were obtained:
Assay type in all cases: cell-based
NCI-H929 cells [1] = assay: Antiproliferative effect alone and in combination with dexamethasone against NCI-H929 cells; settings: 72 h, read-out: IC50
Description: MOLM-13 cells in the logarithmic growth phase were diluted in a medium RPMI+[…], and NCI-H929 cells were diluted in a medium RPMI+10% FBS. The cells were plated at 4,000 cells/well in 96-well whole black plates (WHB) with 50 μL/well. After plating, the plates were incubated in an incubator at 5% CO2 and 37° C. for 24 h before the compounds were added. The compounds were prepared into a 10 mM stock solution in DMSO and diluted in a culture medium to the desired concentrations (a final DMSO concentration of 0.2%). 50 μL of the compound dilutions at final concentrations of 10,000, 3,333.33, 1,111.11, 370.37, 123.46, 41.15, 13.72, 4.57, 1.52, and 0 nM were added to the 96-well plates containing the cells, that is, each compound was serially diluted to 10 concentrations in duplicate. The plates were incubated at 5% CO2 and 37° C. for 72 h. When pharmaceutical partners were used, the concentrations of azacitidine and dexamethasone were kept at 200 nM and 500 nM respectively, and the compounds were serially three-fold diluted from 10,000 nM. After the incubation was complete, the plates were equilibrated at room temperature for 30 min. CellTiter-Glo® Reagent (Promega G7573) was added at 100 μL/well. The plates were shaken for 12 min on a microplate shaker. The luminescence value was measured at room temperature by the GloMax navigator (Promega GM2010). The IC50 values were calculated using the GraphPad Prism 7 software with the 0 nM control group as 0% inhibition.

U937 cells = assay: Antiproliferative activity against various tumor cells: U937; settings: Homo sapiens, U-937; U937 cells, 72 h; read-out: Antiproliferative activity IC50 U937
Description: (§1) U937, NCI-H929, AML-2, and MOLM-13 cells in the logarithmic growth phase were diluted in media RPMI+10% FBS, RPMI+10% FBS, MEMα+20% FBS, RPMI+20% FBS, respectively, and plated at 4,000 cells/well in 96-well whole black plates (WHB) with 50 μL/well. After plating, the plates were incubated in an incubator at 5% CO2 and 37° C. for 24 h before the compounds were added. The compounds were prepared into a 10 mM stock solution in DMSO and diluted in a culture medium to the desired concentrations (a final DMSO concentration of 0.2%). […] The plates were incubated at 5% CO2 and 37° C. for 72 h. After the incubation was complete, the plates were equilibrated at room temperature for 30 min. CellTiter-Glo® Reagent (Promega G7573) was added at 100 μL/well. The plates were shaken for 12 min on a microplate shaker. The luminescence value was measured at room temperature by the GloMax navigator (Promega GM2010).

AML-2 cells = assay: Antiproliferative activity against various tumor cells: AML-2; settings: AML-2 cells, 72 h; read-out: Antiproliferative activity IC50 AML-2
Description: as §1

NCI-H929 cells [2] = assay: Antiproliferative activity against various tumor cells: NCI-H929; settings: Homo sapiens; NCI-H929 cells, 72 h; read-out: Antiproliferative activity IC50 NCI-H929
Description: as §1

MOLM-13 cells = assay: Antiproliferative activity against various tumor cells: MOLM-13; settings: Homo sapiens; MOLM-13 cells, 72 h; read-out: Antiproliferative activity IC50 MOLM-13
Description: as §1

MV-4-11 cells = assay: Antiproliferative activity against MV-4-11 cells (CellTiter-Glo, 72 h); settings: Homo sapiens
How it was run: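 MV-4-11 cells in RPMI + 10% FBS plated at 5,000 cells/well and pre-incubated 24 h at 37 °C, 5% CO2. Compounds were then added (final DMSO 0.2%) and cells incubated 72 h. Viability was read by CellTiter-Glo luminescence after 30 min equilibration at room temperature.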

GSPT1 protein = target: T1, GSPT1 protein (Homo sapiens, UniProt P15170); assay: Degradation of GSPT1 protein in NB-4 cells (Western blot); settings: for inhibition at 1 µM: read-out: GSPT1 degradation
T1 construct: The whole cell lysate was prepared using a RIPA lysis buffer; endogenous in cells; host or cells: NB-4 cells
How it was run: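 NB-4 cells treated with compounds at 1 μM for 6 h at 37 °C, 5% CO2, with DMSO control. RIPA whole-cell lysates, BCA-normalized, were run on 4-20% SDS-PAGE and immunoblotted for GSPT1 protein.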

[3] = MV4-11, MV-4-11 cells, 72 h, read-out: Antiproliferative activity IC50
[4] = in combination with 500 nM dexamethasone

T1 sequence (P15170 whole entry): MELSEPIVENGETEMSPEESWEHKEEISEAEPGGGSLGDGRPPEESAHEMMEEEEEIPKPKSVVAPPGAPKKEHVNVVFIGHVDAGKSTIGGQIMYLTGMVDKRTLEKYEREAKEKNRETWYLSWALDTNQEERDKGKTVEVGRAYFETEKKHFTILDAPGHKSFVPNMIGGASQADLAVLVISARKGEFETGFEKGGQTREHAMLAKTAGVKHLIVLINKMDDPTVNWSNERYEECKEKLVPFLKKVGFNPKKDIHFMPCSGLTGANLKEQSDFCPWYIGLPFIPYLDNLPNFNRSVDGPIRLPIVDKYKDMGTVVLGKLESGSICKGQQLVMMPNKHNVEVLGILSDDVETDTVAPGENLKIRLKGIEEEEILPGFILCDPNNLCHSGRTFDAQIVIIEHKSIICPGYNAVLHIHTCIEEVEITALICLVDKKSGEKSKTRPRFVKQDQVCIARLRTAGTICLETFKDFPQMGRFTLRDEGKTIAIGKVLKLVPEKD

IC50 (MV-4-11 cells; [3]) | inhibition at 1 µM (GSPT1 protein; NB-4 cells, compound 1 μM, 6 h) | SMILES | also measured
 |  | C[C@@H]1C[C@H]2[C@@H]3CCC4=CC(=O)C=C[C@]4(C)[C@@]3(F)[C@@H](O)C[C@]2(C)[C@@]1(O)C(=O)CO [Dexamethasone] | IC50 (NCI-H929 cells [1]; Homo sapiens, compound alone): > 10000 nM
1 to 10 nM | 50 to 80% | O=C1CCC(N2Cc3c(ccc(CNC(=O)c4cc5cc(Cl)ccc5o4)c3Cl)C2=O)C(=O)N1 (stereo not drawn) [FDAB-68] | IC50 (U937 cells): 10 to 100 nM; IC50 (AML-2 cells): 10 to 100 nM; IC50 (NCI-H929 cells [2]): 1 to 10 nM; IC50 (MOLM-13 cells): 10 to 100 nM
1 to 10 nM | > 80% | Cc1cc(C(=O)NCc2ccc3c(c2F)CN(C2CCC(=O)NC2=O)C3=O)cc(C)c1C (stereo not drawn) [FDAB-92] | IC50 (U937 cells): 1 to 10 nM; IC50 (AML-2 cells): 1 to 10 nM; IC50 (NCI-H929 cells [2]): 10 to 100 nM; IC50 (MOLM-13 cells): 1 to 10 nM
< 1 nM | > 80% | CC(C)(C)c1ccc(C(=O)NCc2ccc3c(c2F)CN(C2CCC(=O)NC2=O)C3=O)cc1 (stereo not drawn) [FDAB-94] | IC50 (U937 cells): < 1 nM; IC50 (AML-2 cells): < 1 nM; IC50 (NCI-H929 cells [2]): 1 to 10 nM; IC50 (MOLM-13 cells): < 1 nM
< 1 nM | > 80% | O=C1CCC(N2Cc3c(ccc(CNC(=O)c4ccc(C(=O)c5ccccc5)cc4)c3F)C2=O)C(=O)N1 (stereo not drawn) [FDAB-100] | IC50 (U937 cells): < 1 nM; IC50 (AML-2 cells): 1 to 10 nM; IC50 (NCI-H929 cells [2]): < 1 nM; IC50 (MOLM-13 cells): < 1 nM
10 to 100 nM | > 80% | O=C1CCC(N2Cc3c(ccc(CNC(=O)C(F)(F)c4ccc(Cl)cc4)c3F)C2=O)C(=O)N1 (stereo not drawn) [FDAB-124] | IC50 (U937 cells): 10 to 100 nM; IC50 (AML-2 cells): 10 to 100 nM; IC50 (NCI-H929 cells [2]): 100 to 1000 nM; IC50 (MOLM-13 cells): 10 to 100 nM
1 to 10 nM | > 80% | O=C(CCc1cccc(F)c1)NCc1ccc2c(c1F)CN(C1CCC(=O)NC1=O)C2=O (stereo not drawn) [FDAB-137] | IC50 (U937 cells): 1 to 10 nM; IC50 (AML-2 cells): 1 to 10 nM; IC50 (NCI-H929 cells [2]): 1 to 10 nM; IC50 (MOLM-13 cells): 1 to 10 nM
1 to 10 nM | > 80% | O=C(CCCc1ccc(I)cc1)NCc1ccc2c(c1F)CN(C1CCC(=O)NC1=O)C2=O (stereo not drawn) [FDAB-139] | 
> 1000 nM | < 25% | O=C1CCC(N2Cc3c(ccc(CNC(=O)C4(c5ccc(Br)cc5F)CC4)c3F)C2=O)C(=O)N1 (stereo not drawn) [FDAB-141] | 
< 1 nM | > 80% | O=C(/C=C/c1ccc(Cl)cc1)NCc1ccc2c(c1F)CN(C1CCC(=O)NC1=O)C2=O (stereo not drawn) [FDAB-142] | IC50 (U937 cells): 1 to 10 nM; IC50 (AML-2 cells): 1 to 10 nM; IC50 (NCI-H929 cells [2]): < 1 nM; IC50 (MOLM-13 cells): < 1 nM
< 1 nM | > 80% | CCCOc1ccc(/C=C/C(=O)NCc2ccc3c(c2F)CN(C2CCC(=O)NC2=O)C3=O)cc1 (stereo not drawn) [FDAB-143] | 
< 1 nM | > 80% | O=C(C#Cc1ccccc1)NCc1ccc2c(c1F)CN(C1CCC(=O)NC1=O)C2=O (stereo not drawn) [FDAB-144] | IC50 (U937 cells): 1 to 10 nM; IC50 (AML-2 cells): 1 to 10 nM; IC50 (NCI-H929 cells [2]): < 1 nM; IC50 (MOLM-13 cells): < 1 nM
< 1 nM | > 80% | O=C(C#Cc1ccc(Cl)cc1)NCc1ccc2c(c1F)CN(C1CCC(=O)NC1=O)C2=O (stereo not drawn) [FDAB-145] | 
< 1 nM | > 80% | O=C(C#Cc1cccc(O)c1)NCc1ccc2c(c1F)CN(C1CCC(=O)NC1=O)C2=O (stereo not drawn) [FDAB-146] | 
< 1 nM | > 80% | O=C(C#Cc1ccc(-c2ccccc2)cc1)NCc1ccc2c(c1F)CN(C1CCC(=O)NC1=O)C2=O (stereo not drawn) [FDAB-147] | IC50 (U937 cells): < 1 nM; IC50 (AML-2 cells): < 1 nM; IC50 (NCI-H929 cells [2]): < 1 nM; IC50 (MOLM-13 cells): < 1 nM
1 to 10 nM | > 80% | O=C(C#Cc1ccccn1)NCc1ccc2c(c1F)CN(C1CCC(=O)NC1=O)C2=O (stereo not drawn) [FDAB-148] | 
> 1000 nM | < 25% | N#Cc1ccc(NCC(=O)NCc2ccc3c(c2F)CN(C2CCC(=O)NC2=O)C3=O)cc1 (stereo not drawn) [FDAB-149] | 
< 1 nM | > 80% | O=C(COc1c(Cl)cc(Cl)cc1Cl)NCc1ccc2c(c1F)CN(C1CCC(=O)NC1=O)C2=O (stereo not drawn) [FDAB-152] | 

IC50 (MV-4-11 cells; [3]) | inhibition at 1 µM (GSPT1 protein; NB-4 cells, compound 1 μM, 6 h) | SMILES | also measured
1 to 10 nM | > 80% | O=C(CCOc1ccccc1)NCc1ccc2c(c1F)CN(C1CCC(=O)NC1=O)C2=O (stereo not drawn) [FDAB-154] | 
> 1000 nM | < 25% | O=C(CSc1ccncc1)NCc1ccc2c(c1F)CN(C1CCC(=O)NC1=O)C2=O (stereo not drawn) [FDAB-155] | 
1 to 10 nM | > 80% | O=C1CCC(N2Cc3c(ccc(CNC(=O)C4CC5(CCC5)C4)c3F)C2=O)C(=O)N1 (stereo not drawn) [FDAB-156] | IC50 (U937 cells): 1 to 10 nM; IC50 (AML-2 cells): 10 to 100 nM; IC50 (NCI-H929 cells [2]): 1 to 10 nM; IC50 (MOLM-13 cells): 10 to 100 nM
> 1000 nM | < 25% | O=C(CCCCN1CCCCC1)NCc1ccc2c(c1F)CN(C1CCC(=O)NC1=O)C2=O (stereo not drawn) [FDAB-159] | 
< 1 nM | > 80% | O=C(CCP(c1ccccc1)c1ccccc1)NCc1ccc2c(c1F)CN(C1CCC(=O)NC1=O)C2=O (stereo not drawn) [FDAB-160] | 
< 1 nM | > 80% | O=C(CCSC(=S)SCc1ccccc1)NCc1ccc2c(c1F)CN(C1CCC(=O)NC1=O)C2=O (stereo not drawn) [FDAB-161] | 
< 1 nM | > 80% | COc1cc(C)c(/C=C/C(C)=C/C=C/C(C)=C/C(=O)NCc2ccc3c(c2F)CN(C2CCC(=O)NC2=O)C3=O)c(C)c1C (stereo not drawn) [FDAB-162] | 
> 1000 nM | < 25% | CCCCCCCCCCCCSC(=S)SC(C)(C)C(=O)NCc1ccc2c(c1F)CN(C1CCC(=O)NC1=O)C2=O (stereo not drawn) [FDAB-163] | 
1 to 10 nM | > 80% | O=C1CCC(N2Cc3c(ccc(CNCc4cc5cc(Cl)ccc5o4)c3F)C2=O)C(=O)N1 (stereo not drawn) [FDAB-165] | 
 |  | O=C1CCC(N2Cc3c(ccc(CNCc4ccc(Oc5ccccc5)cc4)c3F)C2=O)C(=O)N1 (stereo not drawn) [FDAB-166] | IC50 (MV-4-11 cells; MV4-11, 72 h, read-out: Antiproliferative activity IC50): 1 to 10 nM; inhibition at 1 µM (GSPT1 protein; NB-4, 6 h): > 80%
1 to 10 nM | > 80% | CCCc1ccc(CNCc2ccc3c(c2F)CN(C2CCC(=O)NC2=O)C3=O)cc1 (stereo not drawn) [FDAB-167] | 
10 to 100 nM | > 80% | O=C1CCC(N2Cc3c(ccc(CNCc4ccc(Cl)cc4)c3F)C2=O)C(=O)N1 (stereo not drawn) [FDAB-168] | 
10 to 100 nM | 50 to 80% | O=C(Cc1cc2ccccc2s1)NCc1cc(F)cc2c1CN(C1CCC(=O)NC1=O)C2=O (stereo not drawn) [FDAB-169] | 
10 to 100 nM | > 80% | O=C(CCc1cccc2ccccc12)NCc1cc(F)cc2c1CN(C1CCC(=O)NC1=O)C2=O (stereo not drawn) [FDAB-170] | 
100 to 1000 nM | < 25% | O=C1CCC(N2Cc3c(CNC(=O)C(F)(F)c4ccc(Cl)cc4)cc(F)cc3C2=O)C(=O)N1 (stereo not drawn) [FDAB-171] | 
 |  | Nc1cccc2c1CN(C1CCC(=O)NC1=O)C2=O (stereo not drawn) [Lenalidomide] | IC50 (NCI-H929 cells [1]; [4]): 774 nM; IC50 (NCI-H929 cells [1]; Homo sapiens, compound alone): 2180 nM
 |  | Nc1cccc2c1C(=O)N(C1CCC(=O)NC1=O)C2=O (stereo not drawn) [Pomalidomide] | IC50 (NCI-H929 cells [1]; [4]): 22.2 nM; IC50 (NCI-H929 cells [1]; Homo sapiens, compound alone): 243 nM
 |  | O=C1CCC(N2Cc3cc(CNC(=O)c4ccc(Cl)cc4)ccc3C2=O)C(=O)N1 (stereo not drawn) [reference compound] | IC50 (MV-4-11 cells; MV4-11, MV-4-11 cells, read-out: IC50 against MV-4-11 cell proliferation): 103 nM; degradation of GSPT1 protein (GSPT1 protein; co-incubated for 6 h with NB-4 cells): 65%
